Experimental data: patent publication US20250051519A1, “SOLUTION ELECTROSPUN FIBERS, COMPOSITIONS COMPRISING THE SAME AND A PROCESS OF MANUFACTURING THEREOF” (UNIVERSITEIT GENT, priority 2021, published 2025)

Columns and labels:
[1] = Sink in vitro dissolution test of flubendazole samples in 0.1 M HCl; type: physicochemical; conditions: after 10 minutes, sample containing 50 mg flubendazole in 900 ml 0.1 M HCl
Protocol: Samples were filtered through a 0.45 μm PTFE filter, diluted and consequently measured via UV-Vis spectroscopy. Experiments were performed in triplicate.

[2] = In vivo bioavailability study, oral capsules, plasma levels by LC-MS; conditions: dog; analyte Flu in plasma; oral capsule with 200 mg Flu, fasted Beagle dogs, n=5
Protocol: Capsules of a 00 size were filled with either 50 wt % Flu-PEtOx nanofibrous material or with pure crystalline Flu. Each capsule contained 200 mg of Flu. These capsules were administered to beagles in 2 different sessions with at least 8 days in between both sessions. The study was approved by the ethical commission for animal testing at Ghent University. Before the dogs were fed the capsules, a fasting time of 12 hours was set. Using an intravenous catheter in the vena cephalica blood samples of 3 ml were collected at different time intervalls of 0.5, 1, 2, 4, 6, 8, 12, 16, 20 and 24 hours after administration. Plasma samples were stored at −20° C. until analyzed using an LC-MS method.
A […] flubendazole nanofibrous amorphous solid dispersion was obtained by the solution electrospinning of PEtOx and Flu in a formic acid solvent system. The process conditions were a tip to collector distance of 15 cm, a flow rate of 0.12 ml/h and a voltage of 27.5 kV. Note that this high flubendazole loading was only reached when a PEtOx wt % was used which is lower compared to the minimal required polymer concentration for solution electrospinning pure PEtOx, as shown in Example 4. […] Concentrations of Flu and its two metabolites, H-Flu and R-Flu, were monitored.

Dissolution rate (10 min) [1]: 0.07 ± 0.03 µg/mL/min | Cmax [2]: 1.2 ± 0.4 ng/mL | Tmax [2]: 1 ± 0.6 h
SMILES: COC(=O)Nc1nc2cc(C(=O)c3ccc(F)cc3)ccc2[nH]1 [Flu, Flubendazole]
